Laboratory results taken from paper PMC5727100, “Evolution of a flipped pathway creates metabolic innovation in tomato trichomes through BAHD enzyme promiscuity” (Nature Communications, 2017).

Molecular target: T1, S. arcanum LA2172-ASAT2 (Solanum arcanum, UniProt A0A0U2QQP2)
T1 construct: pET28b, His-tag nickel purified from E. coli BL21 Rosetta
T1 sequence (A0A0U2QQP2 1-446): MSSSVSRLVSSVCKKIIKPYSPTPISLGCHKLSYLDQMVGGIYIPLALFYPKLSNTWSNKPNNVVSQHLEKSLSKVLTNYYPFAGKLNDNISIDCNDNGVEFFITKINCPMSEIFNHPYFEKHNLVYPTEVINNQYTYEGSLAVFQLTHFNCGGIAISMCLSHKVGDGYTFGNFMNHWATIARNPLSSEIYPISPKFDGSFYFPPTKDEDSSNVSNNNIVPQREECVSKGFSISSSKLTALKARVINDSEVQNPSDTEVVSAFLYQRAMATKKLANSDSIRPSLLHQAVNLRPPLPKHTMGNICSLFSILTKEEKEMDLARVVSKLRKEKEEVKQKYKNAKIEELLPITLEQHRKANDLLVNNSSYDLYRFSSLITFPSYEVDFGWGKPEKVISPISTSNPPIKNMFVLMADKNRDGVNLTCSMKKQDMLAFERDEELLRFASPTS
Assay: LC/MS product detection
Format: biochemical
Details: acyl-CoA donor 100 uM; acceptor 50 uM; pH 6.0, 30 C

SMILES: CC(C)CC(=O)O[C@H]1[C@H](O)[C@@H](O)[C@@H](O[C@]2(CO)O[C@H](CO)[C@@H](O)[C@@H]2O)O[C@@H]1CO [S1:5 (iC5^R4)]
- LC/MS product detection: all characterized ASAT2 proteins in this tomato subclade possessed only F-type enzymatic activities
